Values joined by “and” are separate entries in the source; they are usually repeats but may differ in a detail not shown here. Identical values can stand only once. Counter-ions that a name gives are not always drawn. Like-named read-outs stand apart in the source and are kept apart here.
Columns and labels:
[1] = 5 mg rosuvastatin and 600 mg rifampin; cited from earlier work
[2] = rosuvastatin 10 mg q.d. with metformin 750 mg q.d.; cited from earlier work
[3] = cocktail T1 vs alone, geometric mean ratio
[4] = cocktail T2 vs alone, geometric mean ratio
[5] = cocktail T3 vs alone, geometric mean ratio

C[C@H]1O[C@@H](O[C@H]2[C@@H](O)C[C@H](O[C@H]3[C@@H](O)C[C@H](O[C@H]4CC[C@@]5(C)[C@H](CC[C@@H]6[C@@H]5C[C@@H](O)[C@]5(C)[C@@H](C7=CC(=O)OC7)CC[C@]65O)C4)O[C@@H]3C)O[C@@H]2C)C[C@H](O)[C@@H]1O [Digoxin, digoxin]
urinary excretion parameters fe0-36 and CLR,0-36 between the treatments (Urinary excretion; alone vs cocktails): comparable
AUC0-tz decrease, cocktail T3 vs cocktail T1 (T3 vs T1): 22.6%
Cmax decrease, cocktail T3 vs cocktail T1 (T3 vs T1): 12.2%
median tmax (after all treatments (alone and cocktails)): 1.0 h
AUC0-tz decrease in cocktail vs drug alone (cocktail T3 vs alone (R)): 17%
Cmax decrease in cocktail vs drug alone (cocktail T3 vs alone (R)): 11.4% and 11%

CN(C)C(=N)N=C(N)N [Metformin, metformin hydrochloride]
CLR,0-24 decrease in cocktails vs drug alone (Urinary excretion; cocktails T1 and T3 vs alone): 10–18%
fe0-36 decrease in cocktails vs drug alone (Urinary excretion; cocktails T1 and T3 vs alone): 10–18%

CC(C)c1nc(N(C)S(C)(=O)=O)nc(-c2ccc(F)cc2)c1/C=C/[C@@H](O)C[C@@H](O)CC(=O)O [Rosuvastatin, rosuvastatin]
CLR,0-36 in the different treatment periods (Urinary excretion; alone vs cocktails): comparable
fe0-36, gMean (Urinary excretion; analyte given in Test Cocktail 1): 7.93%
fe0-36, gMean (Urinary excretion; drug given alone, fraction excreted in urine 0-36 h): 5.45%
fe0-36 in cocktails T1, T2, and T3 compared to drug alone (Urinary excretion; in vivo): higher
AUC0-tz increase (higher) in cocktail vs drug alone [3]: 43.4% and 43%
AUC0-∞ increase in cocktail vs drug alone [3]: 27.8%
Cmax increase (higher) in cocktail vs drug alone [3]: 38.6% and 39%
AUC0-tz increase in cocktail vs drug alone [4]: 50.9%
AUC0-∞ increase in cocktail vs drug alone [4]: 37.4%
Cmax increase in cocktail vs drug alone [4]: 37.9%
AUC0-tz increase in cocktail vs drug alone [5]: 45.6%
AUC0-∞ increase in cocktail vs drug alone [5]: 23.3%
Cmax increase in cocktail vs drug alone [5]: 40.1%
AUC0-tz, Ratio T/R (relative bioavailability) (test cocktail T1 vs drug alone): 143.39%
AUC0-∞, Ratio T/R (relative bioavailability) (test cocktail T1 vs drug alone): 127.83%
Cmax, Ratio T/R (relative bioavailability) (test cocktail T1 vs drug alone): 138.57%
AUC0-tz, Ratio T/R (relative bioavailability) (test cocktail T2 vs drug alone): 150.87%
AUC0-∞, Ratio T/R (relative bioavailability) (test cocktail T2 vs drug alone): 137.43%
Cmax, Ratio T/R (relative bioavailability) (test cocktail T2 vs drug alone): 137.93%
AUC0-tz, Ratio T/R (relative bioavailability) (test cocktail T3 vs drug alone): 145.61%
AUC0-∞, Ratio T/R (relative bioavailability) (test cocktail T3 vs drug alone): 123.25%
Cmax, Ratio T/R (relative bioavailability) (test cocktail T3 vs drug alone): 140.05%
increase of plasma AUC0-24 with rifampin [1]: 5.2 fold
increase of plasma Cmax with rifampin [1]: 9.9 fold
effect of metformin on AUCτ [2]: did not alter
increase of geometric mean Cmax,ss caused by metformin [2]: 23%

From paper PMC5102573 (Clinical Pharmacology and Therapeutics, 2016)
